Broadly, the IC50 is the concentration at which inhibition is half-maximal. Lower therefore signals inhibition by little substance.

The values below come from patent US12421225B2, “Heteroaromatic amide derivative and medicament containing the same” (KAKEN PHARMACEUTICAL CO., LTD., priority 2018, dated 2025).

Structures are written as SMILES. Where only a bound is given, the exact number is not on record here.

Sequence of human Nav1.7 (Q15858 whole entry): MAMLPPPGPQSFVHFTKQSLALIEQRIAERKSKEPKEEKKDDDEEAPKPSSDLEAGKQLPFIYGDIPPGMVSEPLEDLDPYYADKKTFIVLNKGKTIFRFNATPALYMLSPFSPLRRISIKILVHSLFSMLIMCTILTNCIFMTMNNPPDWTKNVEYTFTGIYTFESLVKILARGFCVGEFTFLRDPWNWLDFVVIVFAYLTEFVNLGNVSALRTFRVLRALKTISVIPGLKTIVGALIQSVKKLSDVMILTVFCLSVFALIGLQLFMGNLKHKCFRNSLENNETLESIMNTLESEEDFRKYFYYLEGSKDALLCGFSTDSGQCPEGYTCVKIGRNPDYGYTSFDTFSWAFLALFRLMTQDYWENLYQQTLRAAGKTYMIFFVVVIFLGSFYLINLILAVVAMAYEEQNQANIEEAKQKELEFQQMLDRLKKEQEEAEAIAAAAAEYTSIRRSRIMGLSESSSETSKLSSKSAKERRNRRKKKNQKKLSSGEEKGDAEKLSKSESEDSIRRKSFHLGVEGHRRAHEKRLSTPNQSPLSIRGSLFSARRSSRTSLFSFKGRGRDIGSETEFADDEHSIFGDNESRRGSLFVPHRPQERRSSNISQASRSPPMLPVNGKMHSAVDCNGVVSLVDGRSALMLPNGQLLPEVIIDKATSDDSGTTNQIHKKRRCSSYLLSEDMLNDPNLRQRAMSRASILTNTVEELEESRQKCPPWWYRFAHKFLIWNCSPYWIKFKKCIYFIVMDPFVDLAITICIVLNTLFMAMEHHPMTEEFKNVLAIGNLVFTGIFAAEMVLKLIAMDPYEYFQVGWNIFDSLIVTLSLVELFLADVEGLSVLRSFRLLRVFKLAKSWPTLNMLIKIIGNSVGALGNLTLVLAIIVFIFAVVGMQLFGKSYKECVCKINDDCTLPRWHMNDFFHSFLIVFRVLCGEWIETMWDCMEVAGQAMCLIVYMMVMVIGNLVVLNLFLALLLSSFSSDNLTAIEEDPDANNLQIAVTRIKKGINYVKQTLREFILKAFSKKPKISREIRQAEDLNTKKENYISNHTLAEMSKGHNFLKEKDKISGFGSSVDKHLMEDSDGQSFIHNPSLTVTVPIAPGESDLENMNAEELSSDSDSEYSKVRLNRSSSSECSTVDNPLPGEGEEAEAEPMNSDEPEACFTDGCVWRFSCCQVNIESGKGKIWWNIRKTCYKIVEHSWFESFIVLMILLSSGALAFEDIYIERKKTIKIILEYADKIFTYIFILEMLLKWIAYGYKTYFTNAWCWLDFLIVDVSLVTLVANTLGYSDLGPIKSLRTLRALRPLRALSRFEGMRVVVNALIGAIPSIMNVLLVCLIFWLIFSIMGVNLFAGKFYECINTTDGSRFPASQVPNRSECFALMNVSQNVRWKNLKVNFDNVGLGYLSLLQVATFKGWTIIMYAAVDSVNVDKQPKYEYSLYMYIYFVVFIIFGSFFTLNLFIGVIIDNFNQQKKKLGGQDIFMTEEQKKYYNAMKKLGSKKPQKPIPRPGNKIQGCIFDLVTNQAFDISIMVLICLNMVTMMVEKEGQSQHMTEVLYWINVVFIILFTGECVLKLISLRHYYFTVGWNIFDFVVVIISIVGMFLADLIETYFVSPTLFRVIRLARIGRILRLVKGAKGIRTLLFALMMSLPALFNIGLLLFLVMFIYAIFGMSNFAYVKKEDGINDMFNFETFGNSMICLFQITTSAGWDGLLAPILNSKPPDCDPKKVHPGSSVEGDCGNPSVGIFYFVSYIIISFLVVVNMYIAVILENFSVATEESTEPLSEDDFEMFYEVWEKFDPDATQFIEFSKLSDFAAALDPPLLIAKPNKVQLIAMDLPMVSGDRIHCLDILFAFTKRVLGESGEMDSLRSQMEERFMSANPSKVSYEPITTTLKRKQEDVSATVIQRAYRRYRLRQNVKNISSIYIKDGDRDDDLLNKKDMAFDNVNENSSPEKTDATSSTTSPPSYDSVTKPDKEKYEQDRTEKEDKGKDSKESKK
Sequence of human Nav1.7 (Q07699 19-218 partner): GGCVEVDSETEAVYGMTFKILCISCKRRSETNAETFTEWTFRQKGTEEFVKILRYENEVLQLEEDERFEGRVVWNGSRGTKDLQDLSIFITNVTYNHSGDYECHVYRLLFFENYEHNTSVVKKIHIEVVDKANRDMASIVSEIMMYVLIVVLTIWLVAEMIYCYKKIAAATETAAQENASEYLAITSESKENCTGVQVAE

For one assay, the target named is human Nav1.7 (Homo sapiens (Human), UniProt Q15858). Put plainly: Human Nav1.7 inhibitory activity evaluation (automated patch clamp QPatch16X, HEK293A cells stably expressing human Nav1.7 and human Navβ1). As to conditions: HEK293A cells stably expressing human Nav1.7 and human Navβ1, automated patch clamp QPatch16X. In kind it is cell-based. A digest of the protocol:
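IC50 calculated from the concentration-response of inward current evoked by the second −10 mV, 50 ms depolarisation, which follows a 15 s conditioning step at roughly 30-40% inactivation and a 100 ms −120 mV interval. Cells: HEK293A expressing human Nav1.7/Navβ1, automated patch clamp, room temperature, 0.1% DMSO final.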
With `COc1cccc(-c2c(C(=O)N[C@H]3COc4ccccc4C3)nc3n2CC(C(F)(F)F)CC3)n1` (stereo partly drawn) [Example 15], the IC50 was under 1 µM. For `O=C(N[C@H]1COc2ccccc2C1)c1cn2c(n1)CNC(CCc1ccc(F)cc1)C2` (stereo partly drawn) [Example 53], the IC50 is under 10 µM. The compound `N#Cc1ccc2c(c1)C[C@@H](NC(=O)c1cc3n(n1)CCC(CSc1ccccc1)O3)CO2` (stereo partly drawn) [Example 119] yielded an IC50 of under 1 µM. In the case of `N#Cc1ccc(-c2ccc3c(c2)C[C@@H](NC(=O)c2cc4n(n2)CCC(COCC2CC2)O4)CO3)cn1` (stereo partly drawn) [Example 107], the IC50 is under 10 µM. On to `O=C(N[C@H]1COc2ccccc2C1)c1cn2c(n1)CCC(NCc1ccccc1)C2` (stereo partly drawn) [Example 42], for which the IC50 was under 10 µM. In turn, `O=C(N[C@H]1COc2ccc(Cl)cc2C1)c1cc2n(n1)CCC(COc1ccncc1)O2` (stereo partly drawn) [Example 120] returned an IC50 of under 10 µM.

`N#Cc1ccc(-c2ccc3c(c2)C[C@@H](NC(=O)c2cc4n(n2)CCC(COCC(F)(F)F)O4)CO3)cn1` (stereo partly drawn) [Example 132]: the IC50 was under 10 µM. The same measure, in the same setting: the same measure for `O=C(N[C@H]1COc2ccccc2C1)c1cn2c(n1)CNC(c1ccccc1)C2` (stereo partly drawn) [Example 56]: under 10 µM. In the case of `CCC1CCn2nc(C(=O)N[C@H]3COc4ccc(-c5cnc(OC)nc5)cc4C3)cc2O1` (stereo partly drawn) [Example 93], the IC50 was under 1 µM.

Still in this assay, the particulars now being: human Nav1.7, automated patch clamp.
Consider `O=C(N[C@H]1COc2ccc(C(F)(F)F)cc2C1O)c1cc2n(n1)CCC(COCC1CC1)O2` (stereo partly drawn) [Example 559], for which the IC50 is under 10 µM. Same read-out and setting: under `O=C(N[C@H]1COc2ccc(CC(F)(F)F)cc2C1)c1cc2n(n1)CC(COCC(F)(F)F)O2` (single isomer, unassigned) [192 (isomer B)] stands under 1 µM.

`N#Cc1ccc2c(c1)C[C@@H](NC(=O)c1cc3n(n1)CCC(C1CCC1)O3)CO2` (stereo partly drawn) [Example 388] returned an IC50 of under 1 µM. Same read-out and setting: the same measure for `CN1Cc2nc(C(=O)N3CCC(F)(c4ccccc4Cl)C3)cn2CC1c1ccccc1` (stereo not drawn) [Example 329]: under 1 µM. For the compound `COc1cccc(-c2c(C(=O)N[C@H]3COc4ccc(C(F)(F)F)cc4C3)nn3c2COCC3)n1` [Example 484], the IC50 was under 1 µM.

`O=C(N[C@H]1COc2ccc(CCOC(F)F)cc2C1)c1cc2n(n1)CC(CCOC(F)F)O2` (stereo partly drawn) [Example 216] showed an IC50 of under 1 µM. The compound `O=C(N[C@H]1COc2ccc(C(F)(F)F)cc2C1)c1cc2n(n1)CCC(OCCOCC(F)(F)F)CO2` (stereo partly drawn) [Example 680] returned an IC50 of under 10 µM.

Take `O=C(c1cc2n(n1)CCC(COCC1COC1)O2)N(CC1COC1)[C@H]1COc2ccc(-c3ccccn3)cc2C1` (stereo partly drawn) [Example 414]: the concentration for half-maximal inhibition (IC50) is under 10 µM.

`O=C(N[C@H]1COc2ccc(C(F)(F)F)cc2C1O)c1cc2n(n1)CC(CCCOCC(F)F)O2` (stereo partly drawn) [Example 609] gave an IC50 of under 10 µM. `N#Cc1ccc2c(c1)C[C@@H](NC(=O)c1cc3n(n1)CCC(COCC(F)(F)F)CO3)CO2` (stereo partly drawn) [Example 555] yielded an IC50 of under 1 µM.

Compound `O=C(N[C@H]1COc2ccc(I)cc2C1)c1cc2n(n1)CCC(C(F)F)O2` (stereo partly drawn) [Example 566] had an IC50 of under 1 µM. Still for that read-out and setting: under `CN1Cc2nc(C(=O)N3CC(Oc4cccc(C(F)(F)F)n4)C3)cn2CC1c1ccccc1` (stereo not drawn) [Example 330] stands under 10 µM; under `O=C(N[C@H]1COc2ccc(CC(F)F)cc2C1)c1cc2n(n1)CCC(C1CCOCC1)O2` (stereo partly drawn) [Example 586], under 1 µM; under `Cc1ccc2c(c1)C[C@@H](NC(=O)c1cc3n(n1)CC(CCNCC(F)(F)F)O3)CO2` (single isomer, unassigned) [228 (isomer B)], under 10 µM. Still for that read-out and setting: under `O=C(N[C@H]1COc2ccc(C(F)(F)F)cc2C1)c1cc2n(n1)CC(COCCOCC(F)(F)F)O2` (stereo partly drawn) [Example 657] stands under 1 µM; under `O=C(N[C@H]1COc2ccc(C(F)(F)F)cc2C1O)c1cc2n(n1)CC(COCC1CC1)O2` (stereo partly drawn) [Example 560], under 1 µM; under `O=C(N[C@H]1COc2ccc(C(F)(F)F)cc2C1)c1nn2c(c1-c1ccc3cccnc3c1)COCC2` [Example 517], under 10 µM.

`O=C(N[C@H]1COc2ccc(CC(F)F)cc2C1)c1cc2n(n1)CCC(C(F)(F)F)O2` (single isomer, unassigned) [173 (isomer B)] showed an IC50 of under 10 µM. As to `N#Cc1ccc2c(c1)C[C@@H](NC(=O)c1cc3n(n1)CCC(CC(F)(F)F)O3)CO2` (stereo partly drawn) [Example 562], the IC50 was under 10 µM.

As for `O=C(N[C@H]1COc2ccc(C(F)(F)F)cc2C1)c1nn2c(c1-c1ccn[nH]1)OCCC2` [Example 486], the IC50 was under 1 µM. Same read-out and setting: under `O=C(N[C@H]1COc2ccc(CC(F)F)cc2C1)c1cc2n(n1)CCC(COCC(F)(F)F)CO2` (single isomer, unassigned) [601 (isomer A)] stands under 10 µM. `CCC1(O)CCn2nc(C(=O)N[C@H]3COc4ccc(C(F)(F)F)cc4C3F)cc2OC1` (stereo partly drawn) [Example 656] showed an IC50 of under 10 µM. In turn, `N#Cc1ccc2c(c1)C[C@@H](NC(=O)c1cc3n(n1)CCC(OCC(F)(F)F)CO3)CO2` (single isomer, unassigned) [255 (isomer A)] showed an IC50 of under 10 µM. Same read-out and setting: under `O=C(N[C@H]1COc2ccc(C(F)(F)F)cc2C1)c1cc2n(n1)CC(CCNCC(F)(F)F)O2` (single isomer, unassigned) [230 (isomer B)] stands under 10 µM; under `O=C(N[C@H]1COc2ccc(COCC(F)(F)F)cc2C1)c1cc2n(n1)CCC(COCC(F)F)O2` (stereo partly drawn) [Example 635], under 1 µM. For the compound `CC(C)CN1CCn2nc(C(=O)N[C@H]3COc4ccc(C#N)cc4C3)cc2C1` [Example 270], the IC50 was under 10 µM. Same read-out and setting: the same measure for `O=C(N[C@H]1COc2ccc(C(F)(F)F)cc2C1)c1cc2n(n1)CC(CCN1CC(F)(F)C1)O2` (stereo partly drawn) [Example 235]: under 10 µM; for `O=C(N[C@H]1COc2ccc(C(F)(F)F)cc2C1)c1cc2n(n1)CCN(CCOCC(F)F)C2` [Example 666]: under 10 µM; for `O=C(N[C@H]1COc2ccc(C(F)(F)F)cc2C1F)c1cc2n(n1)CCN(CC1CCCOC1)C2` (stereo partly drawn) [Example 672]: under 1 µM. On to `N#Cc1ccc2c(c1)C[C@@H](NC(=O)c1cc3n(n1)CC(CCn1cc(C(F)(F)F)cn1)O3)CO2` (stereo partly drawn) [Example 455], for which the IC50 was under 1 µM. Take `N#Cc1ccc2c(c1)C(F)[C@@H](NC(=O)c1cc3n(n1)CCC(C(F)(F)F)O3)CO2` (stereo partly drawn) [Example 648]: the IC50 is under 10 µM.

Turning to `COc1ncccc1-c1ccc2c(c1)C[C@@H](NC(=O)c1cc3n(n1)CCC(C(F)(F)F)O3)CO2` (stereo partly drawn) [Example 377], the IC50 is under 10 µM. The same measure, in the same setting: the same measure for `Cc1cnc(-c2ccc3c(c2)C[C@@H](NC(=O)c2cc4n(n2)CC(CCOC2CCC2)O4)CO3)cn1` (stereo partly drawn) [Example 475]: under 1 µM. For the compound `O=C(N[C@H]1COc2ccc(CCOC(F)(F)F)cc2C1)c1nc2n(c1-c1ccccn1)CCCC2` [Example 306], the IC50 is under 1 µM. Compound `N#Cc1c(C(=O)N[C@H]2COc3ccccc3C2)nc2n1CC(C(F)(F)F)CC2` (stereo partly drawn) [Example 300] came in with an IC50 of under 10 µM. On the same count and under the same terms, under `CC1(COCC2CC2)Cn2nc(C(=O)N[C@H]3COc4ccc(CC(F)F)cc4C3)cc2O1` (stereo partly drawn) [Example 619] stands under 10 µM; under `C#Cc1ccc2c(c1)C[C@@H](NC(=O)c1cc3n(n1)CCC(COCC(F)(F)F)O3)CO2` (stereo partly drawn) [Example 436], under 1 µM; under `O=C(N[C@H]1COc2ccc(C(F)(F)F)cc2C1O)c1cc2n(n1)CCN(CCOCC(F)(F)F)C2` (stereo partly drawn) [Example 677], under 10 µM. Still for that read-out and setting: under `COc1cccc(-c2c(C(=O)N[C@H]3COc4ccc(C(F)(F)F)cc4C3O)nn3c2COCC3)n1` (stereo partly drawn) [Example 529] stands under 1 µM; under `CC1Oc2cc(C(=O)N[C@H]3COc4ccc(Cl)cc4C3)nn2CC1(F)F` (stereo partly drawn) [Example 385], under 10 µM. In turn, `O=C(N[C@H]1COc2ccc(C(F)(F)F)cc2C1F)c1cc2n(n1)CCN(CCC(F)(F)F)C2` (stereo partly drawn) [Example 647] came in with an IC50 of under 1 µM. The compound `O=C(N[C@H]1COc2ccc(COCC(F)(F)F)cc2C1)c1cc2n(n1)CCC(CCOC(F)F)O2` (single isomer, unassigned) [150 (isomer A)] registered an IC50 of under 1 µM. With `O=C(N[C@H]1COc2ccc(C(F)(F)F)cc2C1)c1cc2n(n1)CC(CCN1CCC(F)(F)C1)O2` (stereo partly drawn) [Example 476], the IC50 was under 1 µM.

Turning to `O=C(N[C@H]1COc2ccc(Cl)cc2C1)c1cc2n(n1)CCC(CC1CCOCC1)O2` (stereo partly drawn) [Example 395], the IC50 is under 1 µM.

The compound `O=C(N[C@H]1COc2ccc(CN3CCOCC3)cc2C1)c1cc2n(n1)CCC(c1ccccc1F)O2` (stereo partly drawn) [Example 368] showed an IC50 of under 10 µM. Still for that read-out and setting: the same measure for `O=C(N[C@H]1COc2ccc(Cl)cc2C1)c1cc2n(n1)CCC(COCC(F)(F)F)O2` (stereo partly drawn) [Example 442]: under 1 µM; for `O=C(N[C@H]1COc2ccc(COCC(F)(F)F)cc2C1)c1cc2n(n1)CC(CCOC1CCC1)O2` (stereo partly drawn) [Example 472]: under 1 µM.

Compound `CCOC(C)c1ccc2c(c1)C[C@@H](NC(=O)c1cc3n(n1)CCC(c1ccccc1F)O3)CO2` (stereo partly drawn) [Example 365] had an IC50 of under 10 µM.
